From article PMC10398712 (Journal of medicinal chemistry, 2023)
Where two headings read alike, the source gives them in different places. Marks after values point to notes of the source that are not given here. Values belong to the compound of their own block, whether it stands above or below them. Residues, ends and D or L forms follow the SMILES beside them. *: point of attachment. Cbz = O=C(OCc1ccccc1)*

Tests used:
[1] = ring opening hydrolysis stability in buffer with different pHs; assay type: physicochemical; conditions: for pH=1.0, ring opening hydrolysis, percent compound remaining: pH 1.0, after 24 h; for pH=7.4, ring opening hydrolysis, percent compound remaining: pH 7.4 buffer, after 24 h, 37°C
IKZF1 = assay: Western blot of IKZF1 in MV4; assay type: cell-based, human; conditions: MV4;11 cells, 10 and 1 μM, 24 h
IKZF3 = assay: Western blot of IKZF3 in MV4; assay type: cell-based, human; conditions: MV4;11 cells, 10 and 1 μM, 24 h
GSPT1 = assay: Western blot of GSPT1 in MV4; assay type: cell-based, human; conditions: MV4;11 cells, 10 and 1 μM, 24 h
CRBN-DDB1 complex = CRBN-DDB1 complex (Homo sapiens, UniProt Q96SW2); assay: fluorescence polarization; assay type: binding; conditions: for displacement of fluorescence probe (relative binding): single concentration of 1 μM, tested three times
CRBN-DDB1 complex, sequence (Q96SW2 whole entry): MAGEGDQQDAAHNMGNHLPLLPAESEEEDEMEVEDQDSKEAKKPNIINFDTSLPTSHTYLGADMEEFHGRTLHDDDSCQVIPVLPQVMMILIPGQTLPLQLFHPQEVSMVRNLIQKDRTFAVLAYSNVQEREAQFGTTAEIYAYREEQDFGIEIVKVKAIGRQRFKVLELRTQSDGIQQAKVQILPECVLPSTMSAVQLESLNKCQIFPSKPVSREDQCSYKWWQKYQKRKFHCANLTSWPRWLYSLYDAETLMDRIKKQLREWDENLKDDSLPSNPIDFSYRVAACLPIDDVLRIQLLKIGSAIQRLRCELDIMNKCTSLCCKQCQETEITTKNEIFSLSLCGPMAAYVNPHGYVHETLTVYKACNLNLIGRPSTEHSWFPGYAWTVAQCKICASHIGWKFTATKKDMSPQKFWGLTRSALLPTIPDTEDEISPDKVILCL
CRBN-DDB1 complex, sequence (Q16531 whole entry partner): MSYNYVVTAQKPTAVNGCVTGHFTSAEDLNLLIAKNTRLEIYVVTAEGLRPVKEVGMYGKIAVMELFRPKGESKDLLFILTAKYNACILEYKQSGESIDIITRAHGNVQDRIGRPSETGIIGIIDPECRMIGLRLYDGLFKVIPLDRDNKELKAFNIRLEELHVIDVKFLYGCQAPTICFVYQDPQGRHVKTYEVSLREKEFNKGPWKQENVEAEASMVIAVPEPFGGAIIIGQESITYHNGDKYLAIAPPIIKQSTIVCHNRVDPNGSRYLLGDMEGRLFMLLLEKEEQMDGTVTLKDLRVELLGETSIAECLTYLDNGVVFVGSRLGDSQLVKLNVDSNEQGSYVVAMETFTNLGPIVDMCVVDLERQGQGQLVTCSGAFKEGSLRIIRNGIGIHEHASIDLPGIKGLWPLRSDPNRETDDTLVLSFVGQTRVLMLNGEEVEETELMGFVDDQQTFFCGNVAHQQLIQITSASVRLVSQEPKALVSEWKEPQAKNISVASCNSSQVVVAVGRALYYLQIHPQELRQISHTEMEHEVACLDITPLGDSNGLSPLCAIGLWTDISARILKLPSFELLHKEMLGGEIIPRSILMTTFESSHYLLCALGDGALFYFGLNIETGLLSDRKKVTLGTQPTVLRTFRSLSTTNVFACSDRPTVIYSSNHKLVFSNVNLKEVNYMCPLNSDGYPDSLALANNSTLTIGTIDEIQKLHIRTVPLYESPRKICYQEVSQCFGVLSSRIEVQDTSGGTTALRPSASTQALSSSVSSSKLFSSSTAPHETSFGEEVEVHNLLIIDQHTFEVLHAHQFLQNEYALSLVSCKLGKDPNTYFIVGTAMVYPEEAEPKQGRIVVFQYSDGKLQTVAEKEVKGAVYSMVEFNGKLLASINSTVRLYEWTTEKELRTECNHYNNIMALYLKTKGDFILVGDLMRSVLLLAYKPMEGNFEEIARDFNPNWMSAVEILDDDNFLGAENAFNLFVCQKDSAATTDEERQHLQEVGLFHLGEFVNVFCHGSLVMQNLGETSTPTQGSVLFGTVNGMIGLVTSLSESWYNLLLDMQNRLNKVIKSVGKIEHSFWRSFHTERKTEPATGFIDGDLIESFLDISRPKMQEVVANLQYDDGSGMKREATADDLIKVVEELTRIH

BRD4 = BRD4 (Homo sapiens, UniProt O60885); assay: Western blot of BRD4; conditions: for effect of pretreatment on BRD4 degradation induced by 13: pretreated 1 h, then 13 for 3 h; for degradation of BRD4: 24 h
MV4;11 cells [2] = assay: flow cytofluorimetric cell cycle analysis; assay type: cell-based, human; conditions: 48 h
MV4;11 cells [3] = assay: flow cytofluorimetric apoptosis analysis; assay type: cell-based, human; conditions: 48 h
caspase 3 cleavage = assay: Western blot of caspase 3 and cleaved caspase 3 in MV4; conditions: MV4;11 cells, 10 nM to 10 μM, 24 h
[4] = in human blood; cited from earlier work
[5] = in-vivo in humans; cited from earlier work
MV4;11 cells [6] = assay: AlamarBlue cell viability; assay type: cell-based, human; conditions: 72 h
[7] = cited from earlier work
CRBN = conditions: cited from earlier work

- pH=1.0, ring opening hydrolysis, percent compound remaining [1]: >99%
- pH=7.4, ring opening hydrolysis, percent compound remaining [1]: >99%
SMILES: CCNC(=O)COc1cccc(N2CCC(=O)NC2=O)c1C [Compound 10, 2-(3-(2,4-dioxotetrahydropyrimidin-1(2H)-yl)-2-methylphenoxy)-N-ethylacetamide]
- degradation of IKZF1 (IKZF1): do not induce the degradation
- degradation of IKZF3 (IKZF3): do not induce the degradation
- degradation of GSPT1 (GSPT1): do not induce the degradation

- displacement of fluorescence probe (relative binding) (CRBN-DDB1 complex): decreased the binding
SMILES: COc1ccccc1N1CCC(=O)NC1=O [Compound 3C, 1-(2-methoxyphenyl)dihydropyrimidine-2,4(1H,3H)-dione]

- pH=1.0, ring opening hydrolysis, percent compound remaining [1]: >99^[g] %
- pH=7.4, ring opening hydrolysis, percent compound remaining [1]: >99%
SMILES: Cc1c(C#CCNC(=O)OC(C)(C)C)cccc1N1CCC(=O)NC1=O [Compound 6F, tert-butyl (3-(3-(2,4-dioxotetrahydropyrimidin-1(2H)-yl)-2-methylphenyl)prop-2-yn-1-yl)carbamate]
- degradation of IKZF1 (IKZF1): do not induce the degradation
- degradation of IKZF3 (IKZF3): do not induce the degradation
- degradation of GSPT1 (GSPT1): do not induce the degradation

- displacement of fluorescence probe (relative binding) (CRBN-DDB1 complex): almost completely lost the binding
SMILES: O=C1CCN(c2ccccc2O)C(=O)N1 [Compound 3A, 1-(2-hydroxyphenyl)dihydropyrimidine-2,4(1H,3H)-dione]

SMILES: CC(C)C[C@@H](C=O)NC(=O)[C@H](CC(C)C)NC(=O)[C@H](CC(C)C)NC(=O)OCc1ccccc1 [MG132, reference compound] (Cbz-Leu-Leu-Leu-aldehyde)
- effect of pretreatment on BRD4 degradation induced by 13 (BRD4; MV4;11 cells): abolished the BRD4 degradation induced by 13

SMILES: Cc1sc2c(c1C)C(c1ccc(Cl)cc1)=N[C@@H](CC(=O)NC1CCN(C(=O)COc3cccc(N4CCC(=O)NC4=O)c3C)CC1)c1nnc(C)n1-2 [Compound 13, (S)-2-(4-(4-chlorophenyl)-2,3,9-trimethyl-6H-thieno[3,2-f][1,2,4]triazolo[4,3-a][1,4]diazepin-6-yl)-N-(1-(2-(3-(2,4-dioxotetrahydropyrimidin-1(2H)-yl)-2-methylphenoxy)acetyl)piperidin-4-yl)acetamide]
- cell cycle effect (MV4;11 cells [2]): induce G1 phase arrest, decrease the cell population in S phase
- cell apoptosis (MV4;11 cells [3]): induced cell apoptosis in a dose-dependent manner
- caspase 3 cleavage (caspase 3 cleavage): successful in inducing caspase 3 cleavage

SMILES: O=C1CCC(N2C(=O)c3ccccc3C2=O)C(=O)N1 (stereo not drawn) [thalidomide]
- racemization half-life [4]: ~ 2.0 h
- racemization half-life [5]: ~ 5.0 h

SMILES: Cc1sc2c(c1C)C(c1ccc(Cl)cc1)=N[C@@H](CC(=O)NCCCC#Cc1cccc(N3CCC(=O)NC3=O)c1C)c1nnc(C)n1-2 [Compound 12C, (S)-2-(4-(4-chlorophenyl)-2,3,9-trimethyl-6H-thieno[3,2-f][1,2,4]triazolo[4,3-a][1,4]diazepin-6-yl)-N-(5-(3-(2,4-dioxotetrahydropyrimidin-1(2H)-yl)-2-methylphenyl)pent-4-yn-1-yl)acetamide]
- degradation of BRD4 (BRD4; in MV4;11 and LNCAP, 1.0 and 0.1 μM): showed obviously BRD4 degradation activity

- pH=1.0, ring opening hydrolysis, percent compound remaining [1]: >99%
- pH=8.8, ring opening hydrolysis, percent compound remaining ([1]; pH 8.8, after 24 h): 0%
SMILES: Nc1cccc2c1CN(C1CCC(=O)NC1=O)C2=O (stereo not drawn) [Lenalidomide, lenalidomide, reference compound]

- pH=1.0, ring opening hydrolysis, percent compound remaining [1]: >99%
- pH=7.4, ring opening hydrolysis, percent compound remaining [1]: >99%
SMILES: Cc1c(OCC(=O)N2CCCCC2)cccc1N1CCC(=O)NC1=O [Compound 9, 1-(2-methyl-3-(2-oxo-2-(piperidin-1-yl)ethoxy)phenyl)dihydropyrimidine-2,4(1H,3H)-dione]
- degradation of IKZF1 (IKZF1): do not induce the degradation
- degradation of IKZF3 (IKZF3): do not induce the degradation
- degradation of GSPT1 (GSPT1): do not induce the degradation
- anti-proliferation activity (MV4;11 cells [6]; at up to 100 μM): did not show any anti-proliferation activity
- effect of pretreatment on BRD4 degradation induced by 13 (BRD4; MV4;11 cells): abolished the BRD4 degradation induced by 13

SMILES: NS(=O)(=O)OC[C@@H]1C[C@@H](n2ccc3c(N[C@H]4CCc5ccccc54)ncnc32)C[C@@H]1O [MLN4924, reference compound]
- effect of pretreatment on BRD4 degradation induced by 13 (BRD4; MV4;11 cells): abolished the BRD4 degradation induced by 13

SMILES: Cc1sc2c(c1C)C(c1ccc(Cl)cc1)=N[C@@H](CC(=O)OC(C)(C)C)c1nnc(C)n1-2 [JQ1, reference compound]
- anti-proliferation activity (MV4;11 cells [6]): weaker anti-proliferation activity than 13, but higher activity than compound 13NT

SMILES: [2H]C1(N2C(=O)c3ccccc3C2=O)CCC(=O)NC1=O (stereo not drawn) [Compound 1D]
- racemization relative to thalidomide [7]: about five times slower than thalidomide

- increase of affinity by ortho-Me relative to parent PDHU 2 (CRBN-DDB1 complex; FP assay): about 2.5 times
SMILES: Cc1ccccc1N1CCC(=O)NC1=O [Compound 3B, 1-(o-tolyl)dihydropyrimidine-2,4(1H,3H)-dione]

SMILES: O=C1CC[C@H](N2C(=O)c3ccccc3C2=O)C(=O)N1 (single isomer, unassigned) [(S)-enantiomeric thalidomide]
- binding affinity to CRBN relative to the (R)-enantiomer (CRBN): at least 10 fold

SMILES: Cc1sc2c(c1C)C(c1ccc(Cl)cc1)=N[C@@H](CC(=O)NC1CCN(C(=O)COc3cccc(N4CCC(=O)N(C)C4=O)c3C)CC1)c1nnc(C)n1-2 [Compound 13NT, (S)-2-(4-(4-chlorophenyl)-2,3,9-trimethyl-6H-thieno[3,2-f][1,2,4]triazolo[4,3-a][1,4]diazepin-6-yl)-N-(1-(2-(2-methyl-3-(3-methyl-2,4-dioxotetrahydropyrimidin-1(2H)-yl)phenoxy)acetyl)piperidin-4-yl)acetamide]
- degradation of BRD4 (BRD4; MV4;11 cells, several different concentrations): no degradation activity of BRD4 was observed

- pH=1.0, ring opening hydrolysis, percent compound remaining [1]: >99%
- pH=7.4, ring opening hydrolysis, percent compound remaining [1]: >99%
SMILES: CC(=O)NCCC#Cc1cccc(N2CCC(=O)NC2=O)c1C [Compound 11, N-(4-(3-(2,4-dioxotetrahydropyrimidin-1(2H)-yl)-2-methylphenyl)but-3-yn-1-yl)acetamide]
- degradation of IKZF1 (IKZF1): do not induce the degradation
- degradation of IKZF3 (IKZF3): do not induce the degradation
- degradation of GSPT1 (GSPT1): do not induce the degradation
